In patent US10906909B2, “Treatment of cognitive and mood symptoms in neurodegenerative and neuropsychiatric disorders with ALPHA5-containing GABAA receptor agonists” (UWM Research Foundation, Inc., priority 2016, dated 2021):
Values joined by “and” are separate entries in the source; they are usually repeats but may differ in a detail not shown here. Equal values may be shown once. “Also recorded” adds a separate entry of the source.

Tests used:
[1] = Pharmacokinetics in mice (plasma, liver, brain); settings: i.p. dosing at 3 mg/kg
[2] = Mouse liver microsome stability assay; type: in vitro ADME; settings: 10 μM compound
Description: (§1) Human and mouse liver microsomes were obtained fom BD Gentest.
(§2) Each evaluation included six independent assays carried out three at a time, on two different days
(§3) 2. For a total volume of Microsomal Assay Mixture (MAM) 390 μL, sufficient for seven time points, combine the following
(§4) 3. Sonicate MAM for 5 min and meanwhile thaw microsomes (20 mg/mL) (BD Gentest, Cat #452156) on ice.
(§5) 4. Aliquot 100 μL of ice cold ISTD into 7 separate 1.5 mL conical vials and label them the time points for 0, 10, 20, 40, 60, 90, and 120 min.
(§6) 5. Arrange the timer. Microsomes (Final concentration of 0.5 mg/mL) should be added to all time points except the zero time point.
(§7) 6. Add 50 μL of the MAM solution to the conical vial labelled as zero time point. Place the remaining MAM solution in the incubator (37° C.) for 5 min and initiate the reaction with addition of microsomes (8.8 μL) and record the time.
(§8) 7. At the end of each time interval remove 50 μL and add 100 μL to ISTD in conical vial, sonicate for 10 sec and spin down at 10,000 rpm for 5 minutes.
(§9) 8. Take 100 μL of supernatant and transfer to Spin-X HPLC filter tubes (Corning Incorporated, Cat #8169) and centrifuge at 13,000 rpm for 5 minutes and take 5 μL from this solution and dilute in 495 μL of LCMS grade methanol (Fischer scientific, CAS #67-56-1) in an 2 mL glass auto sampler vial (Microsolv, Cat #95025-WCV) 9. The samples are analyzed by LCMS-8040. (Shimadzu)
(§10) Calculation: From the peak area, calculate the following
(§11) The compounds are tested for the metabolic stability in the Human and Mouse Liver microsomes at 10 μM concentration.

[3] = system: mice subjected to chronic restraint stress (CRS); test: Y-maze alternation task, chronic restraint stress (CRS) mice; type: in vivo, mouse; settings: Dose 5 mg/kg
Description: C57/B16 mice, males and females were ordered from Jackson Laboratories at 8 weeks old and were kept in normal housing conditions (12 h light ON cycle starting at 7 am/water and food ad libitum) for one week. During this week, animals were single housed and handled to reduce the anxiety-like response toward the experimenter. To induce a working memory deficit, mice were subjected to a chronic restraint stress protocol (CRS). They were placed in a 50 ml Falcon® tube, twice a day, for 1 hour during their diurnal cycle. The time of occurrence of the stress was randomized every day to avoid predictability. CRS was not applied on testing days. Y-maze test occurred 15 hours minimum after the last stressor.
Mice were first habituated to the Y-maze apparatus and distal cues during 2 consecutive days over a 10 min free exploration session (one session per day). The next day, animals performed a training session consisting in seven successive trials separated by a 30 s inter-trial interval (ITI); during this training session, mice were familiarized with the experimental procedure (opening and closing of the doors and confinement into the goal arms). For each trial, mice remained in the start-box for a 30 s ITI. Then, the door was opened and the mouse was allowed to enter freely one of the two goal arms; the chosen arm was closed and the choice was recorded. After a 30 s confinement period into the chosen arm, the mouse was removed and brought back to the start-box for a second trial identical to the first one and this procedure was repeated over the series of trials.
The same general procedure used in the training session was implemented 24 h later, except that the ITI was lengthened to 90 s. For this experiment, animals were acutely injected i.p. with vehicle or αPAM, 30 minutes before the beginning of the test. To dissociate memory deficits from an eventual progressive loss of motivation to alternate over the series, an 8th trial was added to the series which was separated from the 7th trial by a shorter ITI (5 s). All animals failing to alternate at the 8th trial were excluded. The mean alternation rate was calculated and was expressed in percentage (number of alternation done by the animal/total number of alternation possible×100)±SEM. The percentage of alternation during the entire task is considered as an index of working memory performance (50% of being a random alternation rate). Factorial ANOVA was applied to the data to reveal differences between groups. If the ANOVA was significant for group effect (p<0.05), Scheffe post-hoc analysis were conducted to identify which groups are different from each other.
All drugs were diluted in a vehicle solution containing 85% H2O, 14% propylene glycol (Sigma Aldrich) and 1% Tween 80 (Sigma Aldrich). Working solutions were prepared at a concentration of 10 mg/mL and administered i.p. adjusted to the body weight of each animal. Doses used were either 1, 5, 10 or 20 mg/kg. For all Y maze experiments, animals were acutely injected i.p. with vehicle or αPAM, 30 minutes before the beginning of the test.

adult male Wistar rats = test: Spontaneous locomotor activity in rats; type: in vivo, rat; settings: 10 mg/kg i.p.; for distances traveled in 5-min intervals: 60 min recording; for overall distance traveled during 60 min (spontaneous locomotor activity): vs SOL
Description: (FIG. 23). […] Procedure for the assessment of locomotor activity changes induced by additional ligands in rats. […] The test was performed in the apparatus consisting of four white and opaque Plexiglas chambers (40×25×35 cm) under dim red light (20 lux). Digital camera mounted above the apparatus recorded the animal activity, which was tracked and analyzed using ANY-maze Video Tracking System software (Stoelting Co, Wood Dale, Ill., USA). […] The 10 mg/kg dose of each of ligands or SOL were applied i.p. in the 10 ml/kg volume and a single rat was immediately placed in the center of the chamber. The activity was tracked for a total of 60 min. Chambers were cleaned with diluted ethanol after every trial. Statistical analysis (one-way ANOVA and post hoc SNK tests where applicable) was performed in SigmaPlot 11 software (Systat, USA).

HEPG2 = test: Cytotoxicity assay (CellTiter-Glo), HEPG2; type: cell-based, human; settings: 48 hours incubation
Description: (§12) Human liver hepatocellular carcinoma (HEPG2) and human embryonic kidney 293 (HEK293) cell lines were purchased (ATCC) and cultured in 75 cm2 flasks (CellStar). Cells were grown in DMEM/High Glucose (Hyclone, #SH3024301) media to which non-essential amino acids (Hyclone, #SH30238.01), 10 mM HEPES (Hyclone, #SH302237.01), 5×106 units of penicillin and streptomycin (Hyclone, #SV30010), and 10% of heat inactivated fetal bovine serum (Gibco, #10082147) were added. Cells were harvested using 0.05% Trypsin (Hyclone, #SH3023601), washed with PBS, and dispensed into sterile white, optical bottom 384-well plates (NUNC, #142762). After three hours, small molecule solutions were transferred with a Tecan Freedom EVO liquid handling system equipped with a 100 nL pin tool (V&P Scientific). The controls (E)-10-(bromotriphenylphosphoranyl)decyl 4-(4-(tert-butyl)phenyl)-4-oxobut-2-enoate (400 μM in DMSO, positive control) and DMSO (negative control). The cells were incubated for 48 hours followed by the addition of CellTiter-Glo™, a luminescence-based cell viability assay (Promega, Madison, Wis.). All luminescence readings were performed on a Tecan Infinite M1000 plate reader. The assay was carried out in quadruplet with three independent runs. The data was normalized to the controls and analyzed by nonlinear regression (GraphPad Prism).

[4] = Human liver microsome stability assay; type: in vitro ADME; settings: 10 μM compound
Description: as §1, §2, §3, §4, §5, §6, §7, §8, §9, §10, §11

HEK293 = test: Cytotoxicity assay (CellTiter-Glo), HEK293; type: cell-based, human; settings: 48 hours incubation
Description: as §12

[5] = system: Female Swiss Webster mice; test: Rotarod sensorimotor / locomotor coordination; type: in vivo, mouse; settings: for sensorimotor impairment on rotarod (time of fall): 40 mg/kg oral gavage, 15 rpm, 3 min, 10, 30, 60 min after dosing
Description: Female Swiss Webster mice (10 weeks of age) from Charles River Laboratory, WIL, MA were used for the experiments. The animals were housed under specific pathogen-free conditions, under standard conditions of humidity, temperature and a controlled 12 h light and dark cycle and had free access to food and water. The sensorimotor rotarod test was carried out 10, 30 and 60 minutes after the injection. Mice were tested on a rotarod at 15 rpm for maximum 3 min and the time of fall was recorded. Falling before the 3 minutes period of testing assesses of locomotor coordination impairment induced by the compound.
Mice (N=10/group) received a single administration via oral gavage of test compound (40 mg/kg), diazepam (5 mg/kg), or vehicle (2% polyethylene glycol, 2.5% hydroxypropylmethyl cellulose solution).

rats [6] = test: Morris water maze; type: in vivo, rat; settings: diazepam 2 mg/kg, positive control
Description: The potential of MP-III-022 to affect cognitive performance of rats was assessed in 2 well-validated behavioral models. First, Morris water maze experiments were performed in a 2 m diameter circular pool filled to a height of 30 cm with water at 22±1° C. The escape platform (15 cm×10 cm) was submerged 2 cm below the water surface. All experimental details were as described in Savic et al. (Int. J. Neuropsychopharmacol. 2009, 12, 1179-1193). On each of the five consecutive days rats were given one swimming block, consisting of four trials. For each trial the rat was placed in the water at one of four pseudo-randomly determined starting positions. Once the rat has found and mounted the escape platform it was permitted to remain on the platform for 15 s. […] During the acquisition phase, treatments were applied once daily before the swimming block. On the sixth day, rats were given a treatment-free probe test (60 s) without the platform. The probe test was started from the novel, most distant location. Dependent variables chosen for tracking during the acquisition trials were: escape latency (s), total distance traveled (m), path efficiency (the ratio of the shortest possible path length to actual path length), % of distance swam in the peripheral annulus and mean speed (m/s). The selected parameters in the probe test were the distance swam in the target zone […] and % of the distance swam in the peripheral annulus. We tested the effects of 1, 2.5 and 10 mg/kg MP-III-022 and 2 mg/kg diazepam as control drug. The doses of MP-III-022 were selected so that they elicit a mild, moderate and strong positive modulation of α5GABAARs, respectively, in accordance with the analysis of thorough pharmacokinetic and electrophysiological data presented in Stamenic et al. (Eur. J. Pharmacol. 2016, 791, 433-443). The data from the acquisition days in the Morris water maze were averaged for each rat (total data/total number of trials per day) and analyzed using two-way ANOVA with repeated measures (factors: Treatment and Days) with Days as the repeated measure. In the case of significant interaction, separate one-way ANOVAs were conducted to assess the influence of treatment within individual levels of factor Days. The data from the probe test were assessed using one-way ANOVA.

rats [7] = test: Social novelty discrimination (SND); type: in vivo, rat; settings: 2.5 mg/kg diazepam (so in the source)
Description: The SND test compares the social investigation times of an adult rat with a familiar and a novel juvenile rat. Testing consisted of two consecutive juvenile presentations periods to an adult subject: period 1 (P1) and period 2 (P2). At the beginning of P1, one juvenile was placed into the adult home cage and the time spent by the adult investigating the juvenile (anogenital sniffing, licking, close pursuing and pawing) was recorded manually for 5 min. During P2, the same juvenile and a second, novel juvenile were placed in the cage together with the adult, and the times spent by the adult investigating each juvenile were measured independently for 3 min. A different pair of juvenile rats was presented to each adult tested. Manual scoring was conducted in a blinded manner. SND was deliberately impaired in control rats by the parametric manipulation applied, as there was 30 min delay between P1 and P2, and their SND was expected to be low. The influence of MP-III-022 (1, 2.5 or 10 mg/kg) on the thus induced impairment in SND was examined. There were five groups of rats which received one of the following treatments 20 min before P1: solvent, 1.5 mg/kg diazepam and 1, 2.5 and 10 mg/kg MP-III-022. The amount of time investigating familiar (Tf) and novel (Tn) juvenile during P2 was manually scored, and discrimination indexes (Tn−Tf/Tn+Tf) was calculated. Total exploration time during P1 and P2 was also manually recorded.

Compound | molar concentration range reached in mouse brain tissue [1] | Half-life (min) (MouseLM) [2] | % left after 2 hr. (MouseLM) [2] | Alternation rate (%) [3] [%] | distances traveled in 5-min intervals (adult male Wistar rats) | overall distance traveled during 60 min (spontaneous locomotor activity) (adult male Wistar rats) | HEPG2 LD50 (HEPG2) [µM] | Half-life (min) (HumanLM) [4] | HEK293 LD50 (HEK293) [µM] | sensorimotor impairment on rotarod (time of fall) [5] | half-life at 10 μM ([2]; mouse, liver microsomes, read-out: Half-life (min) (MouseLM)) | % left after 2 hr. (Human LM) ([4]; 2 hr) [%] | half-life at 10 μM ([4]; human, liver microsomes, read-out: Half-life (min) (HumanLM)) | spatial learning during acquisition in the water maze (rats [6]) | time exploring the familiar and the novel juvenile rat during P2 (rats [7]) | sensorimotor performance on rotarod (time of fall) ([5]; diazepam 5 mg/kg oral gavage, positive control)
C#Cc1ccc2c(c1)C(c1ccccc1F)=N[C@@H](C)c1c(C(=O)NC)ncn1-2 [MP-III-023, (S)-8-ethynyl-6-(2-fluorophenyl)-N,4-dimethyl-4H-benzo[f]imidazo[1,5-a][1,4]diazepine-3-carboxamide] | micromolar concentrations | 846 ± 5 | 84.6% and 84.6 ± 0.2% | 62.5 | induced sedation during nearly the whole period of recording | profound sedation | >200 | 1790 ± 40 | >200 | most severe motor impairment | – | – | – | – | – | –
CNC(=O)c1ncn2c1CN=C(c1ccccc1F)c1cc(Br)ccc1-2 [RV-II-04] | micromolar concentrations | – | 73.7 ± 0.3% | 54.1 | induced sedation during nearly the whole period of recording | profound sedation; also recorded: sedated when compared to all other groups | >200 | – | >200 | most severe motor impairment | 302 ± 33 | 80.2 ± 0.4 | 595 ± 157 | – | – | –
CN1C(=O)CN=C(c2ccccc2)c2cc(Cl)ccc21 [diazepam, reference compound] | – | – | – | – | – | – | – | – | – | – | – | – | – | spatial learning incapacitation | statistical trend | sensorimotor steadiness at 10 minutes
